Data on one molecule can be found in ChEMBL document CHEMBL5370655.

One data set concerns A-431. The data set can be described thus: Antiproliferative activity against human A-431 cells assessed as inhibition of cell growth measured after 72 hrs by CCK8 assay. The data set is classed as functional, cell-based. To be noted: A-431, 72 h. For orientation: Tetrazolium dyes change colour on reduction, which living cells bring about.
Another data set relates to PC-9. Type of data set: functional, cell-based. Conditions: Homo sapiens, PC-9, 72 h.
Data set [1] in a line: Induction of cell cycle arrest in human H1975-TM cells assessed as accumulation at G2/M phase at 50 nM measured after 24 hrs by RNase A/propidium iodide staining based flow cytometric analysis (reference value: 17.6 %). The data set is classed as functional. For orientation: In flow cytometry, cells or beads pass a laser one at a time.
The nature of data set [2]: Induction of cell cycle arrest in human H1975-TM cells assessed as accumulation at S phase at 250 nM measured after 24 hrs by RNase A/propidium iodide staining based flow cytometric analysis (reference value: 18.1 %). The data set is classed as functional.
Data set [3] can be described thus: Downregulation of EGFR phosphorylation in human H1975-TM cells at 1000 nM measured after 24 hrs by Western blot analysis. Type of data set: functional. For orientation: A western blot detects proteins with antibodies after separation by electrophoresis.
Data set [4] in a line: MRT (0 to infinity) in Sprague-Dawley rat at 5 mg/kg, iv measured upto 24 hrs by HPLC-MS/MS analysis. Conditions: in vivo. Type of data set: ADME, organism-based.
Data set [5] is described as follows: Antitumor activity against human H1975-TM cells xenografted in BALB/c mouse assessed as tumor growth inhibition at 25 mg/kg, po measured after 25 days. The data set is classed as functional. Conditions: time 25 day.
Data set [6] is described as follows: Toxicity in BALB/c mouse xenografted with human H1975-TM cells assessed as appearance of lesions in spleen at 25 to 100 mg/kg, po measured after 25 days by hematoxylin-eosin staining based analysis. The data set is classed as organism-based. Conditions: in vivo, 600 h, dose 25-100 mg/kg, time 25 day.
A short description of data set [7]: Toxicity in BALB/c mouse xenografted with human H1975-TM cells assessed as appearance of lesions in kidney at 25 to 100 mg/kg, po measured after 25 days by hematoxylin-eosin staining based analysis. The data set is classed as organism-based. Conditions: in vivo, 600 h, dose 25-100 mg/kg, time 25 day.
The target of data set [8] is Epidermal growth factor receptor (Homo sapiens, UniProt P00533).
Description: Inhibition of wild-type EGFR (unknown origin) using polyE4Y1 as substrate incubated for 5 mins with compound followed by substrate addition measured after 60 mins in presence of ATP by ADP-Glo reagent based assay
Another data set has as its system H1975-TM. Conditions: Homo sapiens, dose 10-500 nM, time 10.0 day.

Epidermal growth factor receptor, sequence (P00533 whole entry): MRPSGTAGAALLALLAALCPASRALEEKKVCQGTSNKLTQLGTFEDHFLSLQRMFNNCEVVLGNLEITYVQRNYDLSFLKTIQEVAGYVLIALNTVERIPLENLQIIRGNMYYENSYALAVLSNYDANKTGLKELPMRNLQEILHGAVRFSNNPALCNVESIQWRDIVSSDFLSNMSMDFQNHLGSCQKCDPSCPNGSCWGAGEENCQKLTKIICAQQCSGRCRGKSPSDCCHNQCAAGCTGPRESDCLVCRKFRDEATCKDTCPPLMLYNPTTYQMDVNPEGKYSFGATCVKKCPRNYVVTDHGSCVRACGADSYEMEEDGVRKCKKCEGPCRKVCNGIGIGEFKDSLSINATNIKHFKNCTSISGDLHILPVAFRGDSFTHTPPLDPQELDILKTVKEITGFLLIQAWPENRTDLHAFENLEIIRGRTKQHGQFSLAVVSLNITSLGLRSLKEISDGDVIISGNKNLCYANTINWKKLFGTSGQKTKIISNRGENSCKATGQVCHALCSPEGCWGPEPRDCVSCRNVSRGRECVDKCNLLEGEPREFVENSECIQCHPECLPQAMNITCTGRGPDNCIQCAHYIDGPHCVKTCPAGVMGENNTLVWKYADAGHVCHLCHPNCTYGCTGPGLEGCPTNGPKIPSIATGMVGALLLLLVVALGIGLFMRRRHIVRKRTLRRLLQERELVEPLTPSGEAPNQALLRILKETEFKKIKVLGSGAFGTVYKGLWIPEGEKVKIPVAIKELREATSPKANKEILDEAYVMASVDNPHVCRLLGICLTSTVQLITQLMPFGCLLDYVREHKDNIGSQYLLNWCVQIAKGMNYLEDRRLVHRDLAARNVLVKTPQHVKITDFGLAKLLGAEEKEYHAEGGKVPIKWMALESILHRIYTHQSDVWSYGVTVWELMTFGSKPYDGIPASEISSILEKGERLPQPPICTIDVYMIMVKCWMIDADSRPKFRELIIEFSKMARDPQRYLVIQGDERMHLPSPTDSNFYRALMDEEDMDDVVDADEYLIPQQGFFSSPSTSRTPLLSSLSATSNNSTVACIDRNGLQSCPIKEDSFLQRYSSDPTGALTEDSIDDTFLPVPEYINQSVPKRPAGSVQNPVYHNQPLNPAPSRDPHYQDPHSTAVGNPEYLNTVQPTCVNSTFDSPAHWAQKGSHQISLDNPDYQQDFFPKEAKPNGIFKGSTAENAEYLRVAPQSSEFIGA
Description for H1975-TM: Inhibition of colony formation in human H1975-TM cells incubated for 10 days by crystal violet staining based analysis

For the molecule `CCS(=O)(=O)N1CCC(c2nc(-c3ccc(F)cc3)c(-c3ccnc(Nc4ccc5c(ccn5CCN(C)C)c4)n3)s2)CC1`, the half-inhibitory concentration (IC50) (usually the concentration needed to halve the response being measured) in the data set on A-431 is 1400 nM; in the data set with PC-9, 30 nM; in data set [8], 106 nM. Further, the Activity in data set [1] was 14.4%; in [2] it was 15.7%; in data set [3] it was 100%; in data set [6], “Non-Toxic”; in [7] it was “Non-Toxic”. The MRT inf (in general, a mean duration of stay, worked out from the concentration-time curve) in data set [4] was 4.37 h. The TGI (usually how far tumour growth fell short of that in controls) in data set [5] amounted to 47.5%. The inhibition entry with H1975-TM was “Dose-Dependent Effect”.
